Data taken from PubChem BioAssay (NCI).
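Method: 48-hour compound exposure of cells in 96-well plates, five concentrations, linear interpolation of endpoints. Here, GI50 denotes the concentration required for 50% inhibition of growth. TGI is the concentration that stops growth completely.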

What was measured:
Assay in all cases: NCI tumour cell line growth inhibition, 48 h
[1] = system: UACC-62 melanoma
[2] = system: OVCAR-5 ovarian
[3] = system: K-562 leukemia
[4] = system: U251 CNS
[5] = system: BT-549 breast
[6] = system: SK-MEL-5 melanoma
[7] = system: HS 578T breast
[8] = system: MCF7 breast
[9] = system: 786-0 renal
[10] = system: EKVX NSCLC
[11] = system: SNB-19 CNS
[12] = system: SF-539 CNS
[13] = system: SN12C renal
[14] = system: UACC-257 melanoma
[15] = system: RPMI-8226 leukemia
[16] = system: SF-295 CNS
[17] = system: UO-31 renal
[18] = system: RXF 393 renal
[19] = system: SK-OV-3 ovarian
[20] = system: MOLT-4 leukemia
[21] = system: IGROV1 ovarian
[22] = system: T-47D breast
[23] = system: HOP-62 NSCLC
[24] = system: SW-620 colon
[25] = system: KM12 colon
[26] = system: LOX IMVI melanoma
[27] = system: NCI-H460 lung
[28] = system: SK-MEL-2 melanoma
[29] = system: OVCAR-4 ovarian
[30] = system: HOP-92 NSCLC
[31] = system: NCI-H522 lung
[32] = system: SK-MEL-28 melanoma
[33] = system: OVCAR-8 ovarian
[34] = system: HCC-2998 colon
[35] = system: COLO 205 colon
[36] = system: A498 renal
[37] = system: SNB-75 CNS
[38] = system: ACHN renal
[39] = system: MDA-MB-231 breast
[40] = system: HT29 colon
[41] = system: PC-3 prostate
[42] = system: TK-10 renal
[43] = system: CCRF-CEM leukemia
[44] = system: SF-268 CNS
[45] = system: HL-60(TB) leukemia
[46] = system: NCI-H23 lung
[47] = system: M14 melanoma
[48] = system: OVCAR-3 ovarian
[49] = system: CAKI-1 renal
[50] = system: MALME-3M melanoma
[51] = system: MDA-MB-435
[52] = system: NCI/ADR-RES ovarian
[53] = system: HCT-15 colon
[54] = system: NCI-H226 lung
[55] = system: A549 NSCLC
[56] = system: HCT-116 colon

For COc1ccc(OC)c(/C=C/C(=O)N/N=C/c2ccccc2)c1, the GI50 [1] was 3.55 µM, the TGI [1] was 75.8 µM and the GI50 [2] was 18 µM. The TGI [2] was greater than 100 µM, the GI50 [3] was 0.488 µM and the TGI [3] was greater than 100 µM. For the same compound, the GI50 [4] was 3.68 µM, the TGI [4] was greater than 100 µM and the GI50 [5] was 4.05 µM. It also gave a TGI [5] of 90.4 µM, a GI50 [6] of 2.95 µM and a TGI [6] of 14.6 µM. The GI50 [7] was 9.07 µM, the TGI [7] was greater than 100 µM and the GI50 [8] was 3.79 µM. It also gave a TGI [8] greater than 100 µM, a GI50 [9] of 7 µM and a TGI [9] of 72.5 µM. The GI50 [10] was 1.59 µM, the TGI [10] was 59.5 µM and the GI50 [11] was 4.12 µM. For the same compound, the TGI [11] was greater than 100 µM, the GI50 [12] was 4.42 µM and the TGI [12] was 25.1 µM. The GI50 [13] was 4.17 µM, the TGI [13] was 39.9 µM and the GI50 [14] was 5.76 µM. For the same compound, the TGI [14] was 33.6 µM, the GI50 [15] was 2.99 µM and the TGI [15] was 9.96 µM. For the same compound, the GI50 [16] was 1 µM, the TGI [16] was 11.1 µM and the GI50 [17] was 5.9 µM. For the same compound, the TGI [17] was 85.5 µM, the GI50 [18] was 3.9 µM and the TGI [18] was 26.6 µM. It also gave a GI50 [19] of 12 µM, a TGI [19] greater than 100 µM and a GI50 [20] of 4.45 µM. The TGI [20] was greater than 100 µM, the GI50 [21] was 1.51 µM and the TGI [21] was greater than 100 µM. For the same compound, the GI50 [22] was 4.86 µM, the TGI [22] was greater than 100 µM and the GI50 [23] was 4.95 µM. The TGI [23] was greater than 100 µM, the GI50 [24] was 1.5 µM and the TGI [24] was 6.23 µM. The GI50 [25] was 0.834 µM, the TGI [25] was 3.75 µM and the GI50 [26] was 4.12 µM. It also gave a TGI [26] greater than 100 µM, a GI50 [27] of 2.07 µM and a TGI [27] of 5.62 µM. For the same compound, the GI50 [28] was 2.98 µM, the TGI [28] was 9.32 µM and the GI50 [29] was 14.3 µM. It also gave a TGI [29] greater than 100 µM, a GI50 [30] of 1.56 µM and a TGI [30] of 13.3 µM. For the same compound, the GI50 [31] was 1.57 µM, the TGI [31] was 41.7 µM and the GI50 [32] was 8.89 µM. It also gave a TGI [32] greater than 100 µM, a GI50 [33] of 5.44 µM and a TGI [33] of 94.6 µM. It also gave a GI50 [34] of 2.35 µM, a TGI [34] of 21 µM and a GI50 [35] of 4.8 µM. For the same compound, the TGI [35] was 35.1 µM, the GI50 [36] was 12 µM and the TGI [36] was greater than 100 µM. For the same compound, the GI50 [37] was 4.39 µM, the TGI [37] was 37.3 µM and the GI50 [38] was 9.66 µM. For the same compound, the TGI [38] was greater than 100 µM, the GI50 [39] was 7.24 µM and the TGI [39] was greater than 100 µM. It also gave a GI50 [40] of 2.1 µM, a TGI [40] greater than 100 µM and a GI50 [41] of 5.86 µM. It also gave a TGI [41] of 52.1 µM, a GI50 [42] of 16.6 µM and a TGI [42] greater than 100 µM. The GI50 [43] was 3.97 µM, the TGI [43] was greater than 100 µM and the GI50 [44] was 7.56 µM. It also gave a TGI [44] greater than 100 µM, a GI50 [45] of 2.03 µM and a TGI [45] of 13.7 µM. The GI50 [46] was 5.4 µM, the TGI [46] was 87 µM and the GI50 [47] was 2.16 µM. It also gave a TGI [47] of 6.77 µM, a GI50 [48] of 3.15 µM and a TGI [48] greater than 100 µM. For the same compound, the GI50 [49] was 0.443 µM, the TGI [49] was 6.66 µM and the GI50 [50] was 2.12 µM. It also gave a TGI [50] greater than 100 µM, a GI50 [51] of 0.283 µM and a TGI [51] of 1.98 µM. It also gave a GI50 [52] of 1.46 µM, a TGI [52] of 4.29 µM and a GI50 [53] of 3.62 µM. It also gave a TGI [53] greater than 100 µM, a GI50 [54] of 30.8 µM and a TGI [54] greater than 100 µM. For the same compound, the GI50 [55] was 4.29 µM, the TGI [55] was greater than 100 µM and the GI50 [56] was 2.64 µM. The TGI [56] was 10.2 µM.
